Assay results taken from patent publication US8748415B2 (priority 2011, dated 2014).

Tested on: recombinant NL4-3 virus (Renilla luciferase in nef, Gag P373S)
Assay: HIV cell culture assay (luciferase activity in MT-2 cells infected with NLRluc recombinant virus)
Assay type: cell-based
Details: NL43, MT-2 cells infected 4-5 days with NLRluc recombinant virus
Experimental: HIV cell culture assay—MT-2 cells and 293T cells were obtained from the NIH AIDS Research and Reference Reagent Program. MT-2 cells were propagated in RPMI 1640 media supplemented with 10% heat inactivated fetal bovine serum, […]. The 293T cells were propagated in DMEM media supplemented with 10% heat inactivated fetal bovine serum (FBS), 100 units/ml penicillin G and 100 μg/ml streptomycin. The proviral DNA clone of NL4-3 was obtained from the NIH AIDS Research and Reference Reagent Program. A recombinant NL4-3 virus, in which a section of the nef gene from NL4-3 was replaced with the Renilla luciferase gene, was used as a reference virus. In addition, residue Gag P373 was converted to P373S. Briefly, the recombinant virus was prepared by transfection of the altered proviral clone of NL4-3. Transfections were performed in 293T cells using LipofectAMINE PLUS from Invitrogen (Carlsbad, Calif.), according to manufacturer's instruction. The virus was titered in MT-2 cells using luciferase enzyme activity as a marker. Luciferase was quantitated using the Dual Luciferase kit from Promega (Madison, Wis.), with modifications to the manufacturer's protocol. The diluted Passive Lysis solution was pre-mixed with the re-suspended Luciferase Assay Reagent and the re-suspended Stop & Glo Substrate (2:1:1 ratio). Fifty (50) μL of the mixture was added to each aspirated well on assay plates and luciferase activity was measured immediately on a Wallac TriLux (Perkin-Elmer). Antiviral activities of inhibitors toward the recombinant virus were quantified by measuring luciferase activity in cells infected for 4-5 days with NLRluc recombinants in the presence serial dilutions of the inhibitor. Table 1 is the key for the data in Table 2.

SMILES | EC50 (numeric value) | EC50 (class symbol)
C=C(C)[C@@H]1CC[C@]2(CNCC3CCCN3CC)CC[C@]3(C)[C@H](CC[C@@H]4[C@@]5(C)CC=C(c6ccc(C(=O)O)cc6)C(C)(C)[C@@H]5CC[C@]43C)[C@@H]12 (single isomer, unassigned) [Example 3] | 0.03 µM | 
C=C(C)[C@@H]1CC[C@]2(CNCCCC(=O)O)CC[C@]3(C)[C@H](CC[C@@H]4[C@@]5(C)CC=C(c6ccc(C(=O)O)cc6)C(C)(C)[C@@H]5CC[C@]43C)[C@@H]12 [Example 28, 4-((1R,3aS,5aR,5bR,7aR,11aS,11bR,13aR,13bR)-3a-((3-carboxypropylamino)methyl)-5a,5b,8,8,11a-pentamethyl-1-(prop-1-en-2-yl)-2,3,3a,4,5,5a,5b,6,7,7a,8,11,11a,11b,12,13,13a,13b-octadecahydro-1H-cyclopenta[a]chrysen-9-yl)benzoic acid] | 0.002 µM | 
C=C(C)[C@@H]1CC[C@]2(CNCCC(=O)NCCC(=O)N(C)C)CC[C@]3(C)[C@H](CC[C@@H]4[C@@]5(C)CC=C(c6ccc(C(=O)O)cc6)C(C)(C)[C@@H]5CC[C@]43C)[C@@H]12 [Example 99, 4-((1R,3aS,5aR,5bR,7aR,11aS,11bR,13aR,13bR)-3a-((3-(3-(dimethylamino)-3-oxopropylamino)-3-oxopropylamino)methyl)-5a,5b,8,8,11a-pentamethyl-1-(prop-1-en-2-yl)-2,3,3a,4,5,5a,5b,6,7,7a,8,11,11a,11b,12,13,13a,13b-octadecahydro-1H-cyclopenta[a]chrysen-9-yl)benzoic acid] |  | < 0.1 µM
C=C(C)[C@@H]1CC[C@]2(CNCCC(=O)N3CCC[C@H]3C(=O)OC)CC[C@]3(C)[C@H](CC[C@@H]4[C@@]5(C)CC=C(c6ccc(C(=O)O)cc6)C(C)(C)[C@@H]5CC[C@]43C)[C@@H]12 [Example 101, 4-((1R,3aS,5aR,5bR,7aR,11aS,11bR,13aR,13bR)-3a-((3-((S)-2-(methoxycarbonyl)pyrrolidin-1-yl)-3-oxopropylamino)methyl)-5a,5b,8,8,11a-pentamethyl-1-(prop-1-en-2-yl)-2,3,3a,4,5,5a,5b,6,7,7a,8,11,11a,11b,12,13,13a,13b-octadecahydro-1H-cyclopenta[a]chrysen-9-yl)benzoic acid] |  | < 0.1 µM
C=C(C)[C@@H]1CC[C@]2(CNCCN3CCCCC3)CC[C@]3(C)[C@H](CC[C@@H]4[C@@]5(C)CC=C(c6ccc(C(=O)O)cc6)C(C)(C)[C@@H]5CC[C@]43C)[C@@H]12 [Example 9, 4-((1R,3aS,5aR,5bR,7aR,11aS,11bR,13aR,13bR)-5a,5b,8,8,11a-pentamethyl-3a-((2-(piperidin-1-yl)ethylamino)methyl)-1-(prop-1-en-2-yl)-2,3,3a,4,5,5a,5b,6,7,7a,8,11,11a,11b,12,13,13a,13b-octadecahydro-1H-cyclopenta[a]chrysen-9-yl)benzoic acid] |  | < 0.1 µM
C=C(C)[C@@H]1CC[C@]2(CN(CCCN3CCS(=O)(=O)CC3)C(C)=O)CC[C@]3(C)[C@H](CC[C@@H]4[C@@]5(C)CC=C(c6ccc(C(=O)O)cc6)C(C)(C)[C@@H]5CC[C@]43C)[C@@H]12 [Example 17, 4-((1R,3aS,5aR,5bR,7aR,11aS,11bR,13aR,13bR)-5a,5b,8,8,11a-pentamethyl-1-(prop-1-en-2-yl)-3a-((3-(1-dioxo-thiomorpholino)propylamino)methyl)-2,3,3a,4,5,5a,5b,6,7,7a,8,11,11a,11b,12,13,13a,13b-octadecahydro-1H-cyclopenta[a]chrysen-9-yl)benzoic acid] |  | < 0.1 µM
C=C(C)[C@@H]1CC[C@]2(CNCCC(=O)N3CCC(=O)CC3)CC[C@]3(C)[C@H](CC[C@@H]4[C@@]5(C)CC=C(c6ccc(C(=O)O)cc6)C(C)(C)[C@@H]5CC[C@]43C)[C@@H]12 [Example 128, 4-((1R,3aS,5aR,5bR,7aR,11aS,11bR,13aR,13bR)-5a,5b,8,8,11a-pentamethyl-3a-((3-oxo-3-(4-oxopiperidin-1-yl)propylamino)methyl)-1-(prop-1-en-2-yl)-2,3,3a,4,5,5a,5b,6,7,7a,8,11,11a,11b,12,13,13a,13b-octadecahydro-1H-cyclopenta[a]chrysen-9-yl)benzoic acid] |  | < 0.1 µM
C=C(C)[C@@H]1CC[C@]2(CNC(=O)CN(C)C)CC[C@]3(C)[C@H](CC[C@@H]4[C@@]5(C)CC=C(c6ccc(C(=O)O)cc6)C(C)(C)[C@@H]5CC[C@]43C)[C@@H]12 [Example 148, 4-((1R,3aS,5aR,5bR,7aR,11aS,11bR,13aR,13bR)-3a-((2-(dimethylamino)acetamido)methyl)-5a,5b,8,8,11a-pentamethyl-1-(prop-1-en-2-yl)-2,3,3a,4,5,5a,5b,6,7,7a,8,11,11a,11b,12,13,13a,13b-octadecahydro-1H-cyclopenta[a]chrysen-9-yl)benzoic acid] |  | < 0.1 µM
C=C(C)[C@@H]1CC[C@]2(CNC(=O)C3CC(=O)NC(=O)C3)CC[C@]3(C)[C@H](CC[C@@H]4[C@@]5(C)CC=C(c6ccc(C(=O)O)cc6)C(C)(C)[C@@H]5CC[C@]43C)[C@@H]12 [Example 134, 4-((1R,3aS,5aR,5bR,7aR,11aS,11bR,13aR,13bR)-3a-((2,6-dioxopiperidine-4-carboxamido)methyl)-5a,5b,8,8,11a-pentamethyl-1-(prop-1-en-2-yl)-2,3,3a,4,5,5a,5b,6,7,7a,8,11,11a,11b,12,13,13a,13b-octadecahydro-1H-cyclopenta[a]chrysen-9-yl)benzoic acid] |  | < 0.1 µM
C=C(C)[C@@H]1CC[C@]2(CN[C@@H](CC(=O)OC)C(=O)OC)CC[C@]3(C)[C@H](CC[C@@H]4[C@@]5(C)CC=C(c6ccc(C(=O)O)cc6)C(C)(C)[C@@H]5CC[C@]43C)[C@@H]12 [Example 49, 4-((1R,3aS,5aR,5bR,7aR,11aS,11bR,13aR,13bR)-3a-(((S)-1,4-dimethoxy-1,4-dioxobutan-2-ylamino)methyl)-5a,5b,8,8,11a-pentamethyl-1-(prop-1-en-2-yl)-2,3,3a,4,5,5a,5b,6,7,7a,8,11,11a,11b,12,13,13a,13b-octadecahydro-1H-cyclopenta[a]chrysen-9-yl)benzoic acid] |  | < 0.1 µM
C=C(C)[C@@H]1CC[C@]2(CNCC(O)CN3CCCC3=O)CC[C@]3(C)[C@H](CC[C@@H]4[C@@]5(C)CC=C(c6ccc(C(=O)O)cc6)C(C)(C)[C@@H]5CC[C@]43C)[C@@H]12 (stereo partly drawn) [Example 81, 4-((1R,3aS,5aR,5bR,7aR,11aS,11bR,13aR,13bR)-3a-((2-hydroxy-3-(2-oxopyrrolidin-1-yl)propylamino)methyl)-5a,5b,8,8,11a-pentamethyl-1-(prop-1-en-2-yl)-2,3,3a,4,5,5a,5b,6,7,7a,8,11,11a,11b,12,13,13a,13b-octadecahydro-1H-cyclopenta[a]chrysen-9-yl)benzoic acid] |  | < 0.1 µM
C=C(C)[C@@H]1CC[C@]2(CNCCO)CC[C@]3(C)[C@H](CC[C@@H]4[C@@]5(C)CC=C(c6ccc(C(=O)O)cc6)C(C)(C)[C@@H]5CC[C@]43C)[C@@H]12 [Example 178, 4-((1R,3aS,5aR,5bR,7aR,11aS,11bR,13aR,13bR)-3a-((2-hydroxyethylamino)methyl)-5a,5b,8,8,11a-pentamethyl-1-(prop-1-en-2-yl)-2,3,3a,4,5,5a,5b,6,7,7a,8,11,11a,11b,12,13,13a,13b-octadecahydro-1H-cyclopenta[a]chrysen-9-yl)benzoic acid] |  | < 0.1 µM
C=C(C)[C@@H]1CC[C@]2(CNC(=O)OCCN3CCS(=O)(=O)CC3)CC[C@]3(C)[C@H](CC[C@@H]4[C@@]5(C)CC=C(c6ccc(C(=O)O)cc6)C(C)(C)[C@@H]5CC[C@]43C)[C@@H]12 [Example 165, 4-((1R,3aS,5aR,5bR,7aR,11aS,11bR,13aR,13bR)-3a-((((2-(1,1-dioxido-4-thiomorpholinyl)ethoxy)carbonyl)amino)methyl)-1-isopropenyl-5a,5b,8,8,11a-pentamethyl-2,3,3a,4,5,5a,5b,6,7,7a,8,11,11a,11b,12,13,13a,13b-octadecahydro-1H-cyclopenta[a]chrysen-9-yl)benzoic acid] |  | < 0.1 µM
C=C(C)[C@@H]1CC[C@]2(CN(CCCN3CCS(=O)(=O)CC3)C(=O)CCC(=O)NS(=O)(=O)C3CC3)CC[C@]3(C)[C@H](CC[C@@H]4[C@@]5(C)CC=C(c6ccc(C(=O)O)cc6)C(C)(C)[C@@H]5CC[C@]43C)[C@@H]12 [Example 173, 4-((1R,3aS,5aR,5bR,7aR,11aS,11bR,13aR,13bR)-3a-(((4-((cyclopropylsulfonyl)amino)-4-oxobutanoyl)(3-(1,1-dioxido-4-thiomorpholinyl)propyl)amino)methyl)-1-isopropenyl-5a,5b,8,8,11a-pentamethyl-2,3,3a,4,5,5a,5b,6,7,7a,8,11,11a,11b,12,13,13a,13b-octadecahydro-1H-cyclopenta[a]chrysen-9-yl)benzoic acid] |  | < 0.1 µM
